Experiments:
human insulin [1] = molecular target: T1, human insulin (Homo sapiens, UniProt P01308); assay: Physical stability of insulin solution at 5° C. by visual inspection for precipitation; assay type: physicochemical; settings: 0.5 Zn2+/insulin, NaCl 15 mM, glycylglycine 7 mM, tween 20 0.01%, pH 7.5
T1 construct: Insulin derivatives having truncations in the C-terminal of the B-chain; deamidations at A18, A21 and B3
Method: (§1) 27.5 ml of a 21 mM insulin stock solution was made by dissolving 3.707 g zinc free human insulin in 14 ml water and adding 2888 μl of 0.1 M ZnCl2 and 7 ml water before adjusting pH to 7.5 by 0.2 M NaOH and finally adding water to 27.5 ml, calculating the specific volume of insulin as 0.7 μl/mg. The stock solution was filtrated. A preparation of 3.5 ml 15 mM insulin was then made by adding 23 μl 2.3 M stabiliser in ethanol, 49 μl 0.5 M glycylglycine and 35 μl 1% Tween 20 and water to 3.5 ml. The solution was thereafter diluted with medium containing sodium chloride 15 mM, glycylglycine 7 mM, Tween 20 0.01%, pH 7.5 to 12, 9, 6, 3 and 0.6 mM insulin and stored at 5° C. for visual inspection. The reference solution was made by the same way but without adding a stabiliser. The chemical stability of the insulin solutions were followed at 37° C. for two concentrations, 3 and 15 mM, by determination of covalent insulin polymer by size exclusion chromatography. […] Detection was performed with a tunable absorbance detector (Waters 486) at 276 nm. Injection volume were […] for 3 and 15 mM insulin solutions, respectively.
(§2) 3.26 g human insulin (0.4 equivalent Zn^2+ per insulin) was dispersed in water in 18 ml water on icebath and added 490 μl 0.5 M glycylglycine and 1628 μl sodium hydroxide (3.1 equivalent) and stirred slowly overnight at 5° C. 613 μl 0.1 M zinc chloride (0.1 equivalent of zinc) was then added the solution, pH adjusted to 7.5 by 410 μl 1 M hydrochloric acid (0.8 equivalent of chloride) and the volume adjusted to 25 ml by water. Finally the stock solution of 21 mM insulin was filtrated. 3.57 ml of the stock solution was added 50 μl 1% tween 20, 750 μl 0.1 M stabiliser and 630 μl water to obtain 5 ml 15 mM insulin formulation. Finally the preparation was diluted with medium containing sodium chloride, glycylglycine and detergent to obtain 12, 9, 6, and 3 mM of human insulin and stored at 5° C. for visual inspection. The chemical stability of 3 and 15 mM insulin solutions were followed at 37° C. by determination of covalent insulin polymer by size exclusion chromatography.

human insulin [2] = molecular target: T1, human insulin; assay: Chemical stability at 37° C.: covalent insulin polymer by size exclusion chromatography; assay type: physicochemical; settings: stabiliser equimolar to insulin, 0.5 Zn2+/insulin, NaCl 15 mM, glycylglycine 7 mM, tween 20 0.01%, pH 7.5
Method: as §1, §2

[3] = example 1, stabiliser equimolar to insulin
[4] = example 2, stabiliser equimolar to insulin

T1 sequence (P01308 25-54 limits assumed): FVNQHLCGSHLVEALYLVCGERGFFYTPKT
T1 sequence (P01308 90-110 limits assumed): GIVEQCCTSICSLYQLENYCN

Row | Structure (SMILES) | Physical stability of solution at 4 weeks and 5° C.: maximal insulin concentration at which the solution was without precipitation up to 15 mM (3, 6, 9, 12, 15 mM) (human insulin [1]; [3]) | Chemical stability at 37° C. (% polymer/week), insulin solution of 3 mM (human insulin [2]; example 1, 3 mM insulin) | Chemical stability at 37° C. (% polymer/week), insulin solution of 15 mM (human insulin [2]; example 1, 15 mM insulin) | Physical stability of solution at 4 weeks and 5° C.: maximal insulin concentration at which the solution was without precipitation up to 15 mM (3, 6, 9, 12, 15 mM) (human insulin [1]; [4]) | Chemical stability at 37° C. (% polymer/week), insulin solution of 3 mM (human insulin [2]; example 2, 3 mM insulin) | Chemical stability at 37° C. (% polymer/week), insulin solution of 15 mM (human insulin [2]; example 2, 15 mM insulin)
1 | CC1(C)[C@H]2CC[C@H](CO)[C@@H]1C2 (relative stereo) [(−)-trans-myrtanol] | 15 mM | – | – | – | – | –
2 | CC1(C)C2CCC1(C)C(O)C2 (single isomer, unassigned; (+)) [(+)-borneol] | 9 mM | 0.47 % polymer/week | 0.61 % polymer/week | – | – | –
3 | CC1(C)C2CCC1(C)C(O)C2 (single isomer, unassigned; (-)) [(−)-borneol] | 9 mM | 0.43 % polymer/week | 0.47 % polymer/week | – | – | –
4 | CC1C(O)CC2CC1C2(C)C (single isomer, unassigned; (-)) [(−)-isopinocampheol] | 15 mM | – | – | – | – | –
5 | CC1(C)[C@H]2CC[C@](C)(C2)[C@H]1O [(+)-fenchol] | 15 mM | 0.50 % polymer/week | 0.97 % polymer/week | – | – | –
6 | C[C@@H]1[C@@H](O)C[C@H]2C[C@@H]1C2(C)C [(+)-isopinocampheol] | 12 mM | – | – | – | – | –
7 | Nc1ncnc2nc[nH]c12 [adenine] | – | – | – | 9 mM | 0.59 % polymer/week | 0.77 % polymer/week
8 | Oc1ccccc1 [phenol] | 15 mM | 0.37 % polymer/week | 0.39 % polymer/week | 15 mM | 0.32 % polymer/week | 0.29 % polymer/week
9 | c1ncc2[nH]cnc2n1 [purine] | – | – | – | 15 mM | 0.58 % polymer/week | 0.71 % polymer/week
